Source: PMC5071873, “The Effects of Puerarin on Rat Ventricular Myocytes and the Potential Mechanism” (Scientific Reports, 2016)

Tests used:
Type in all cases: cell-based
intracellular cAMP = assay: Mouse/Rat cAMP assay in rat cardiomyocytes; conditions: puerarin 1 mM
Protocol: cAMP levels were measured in rat cardiomyocytes using a Mouse/Rat cAMP kit (cAMP parameter assay kit, R&D Systems) according to the manufacturer’s instructions. The assay is based on the competitive binding technique. A streptavidin-coated plate is incubated with a biotinylated monoclonal antibody specific for cAMP. Following a wash to remove excess monoclonal antibody, cAMP present in a sample competes with a fixed amount of horseradish peroxidase (HRP)-labeled cAMP for sites on the monoclonal antibody. This is followed by another wash to remove excess conjugate and unbound sample. A substrate solution is added to the wells to determine the bound enzyme activity. The color development is stopped and the absorbance is read at 450 nm. The intensity of the color is inversely proportional to the concentration of cAMP in the sample. The level of cAMP in the sample was determined based on a standard curve and expressed as pmol/mg per each sample. Normalized cAMP was calculated by compared with the control group. In our study, we investigate the effect of puerarin on intracellular cAMP concentration and its effect upon the increase of cAMP induced by isoproterenol, forskolin and 8-Br-cAMP.

rat ventricular myocytes = assay: Action potential recording on isolated rat ventricular myocytes; conditions: for APA: control 112.5 ± 6.3; for Vmax: control 226.9 ± 12.4; for RMP: control −80.1 ± 2.7
Protocol: (§1) The Tyrode’s solution contained (mM): 126 NaCl, 5.4 KCl, 1.8 CaCl2, 1 MgCl2, 0.33 NaH2PO4, 10 HEPES and 10 glucose, pH 7.4 (adjusted with NaOH). The Ca^2+-free Tyrode’s solution was prepared by removing CaCl2 from the Tyrode’s solution. The Kreb’s solution used for cell storage contained (mM): 70 glutamic acid, 30 KCl, 15 taurine, 0.5 MgCl2, 10 KH2PO4, 0.5 EGTA, 10 HEPES, 10 glucose, and 1% albumin, pH 7.4 (adjusted with KOH). The enzyme solution used for the rat cardiomyocyte isolation contained 0.08 g/L collagenase (type II) and 1.0 g/L BSA in Kreb’s solution. For action potential recording on cardiomyocyte, the pipette solution contained (mM): 100 potassium aspartate, 30 KCl, 1 MgCl2, 5 Mg-ATP, 5 EGTA, 5 HEPES, pH 7.3 (adjusted with KOH); the Tyrode’s solution was used as the standard bath solution. For whole-cell recording of IKs on myocytes, the pipette solution contained (mM): 125 potassium aspartate, 20 KCl, 1 MgCl2, 5 Mg-ATP, 10 EGTA, 5 HEPES, pH 7.3 (adjusted with KOH); the bath solution contained (mM): 132 NaCl, 4 KCl, 1.8 CaCl2, 1.2 MgCl2, 10 HEPES, 5 glucose, pH 7.4 (adjusted with NaOH). 3 μM nifedipine and 5 μM E-4031 were used to block the calcium current and IKr, respectively. For whole-cell recording on HEK-293 cells, the pipette solution contained (mM): 140 KCl, 2 MgCl2, 10 HEPES, 0.1 EGTA, 4 K2-ATP, pH 7.3 (adjusted with KOH); the bath solution contained (mM): 120 NaCl, 5 KCl, 1.5 CaCl2, 1 MgCl2, 10 HEPES, 10 glucose, pH 7.4 (adjusted with NaOH). For single-channel recording, the pipette solution (extracellular) contained (mM): 145 KCl, 10 HEPES, 10 glucose, pH 7.4 (adjusted with KOH); the bath solution (intracellular) contained (mM): 145 KCl, 1.2 MgCl2, 10 HEPES, 0.1 EGTA, pH 7.38 (adjusted with KOH).
Single ventricular myocytes were isolated from adult rat hearts via enzymatic dissociation as previously described. Briefly, the rats were anesthetised with 25% chloral hydrate (0.1 g/100 g). Their hearts were excised rapidly and retrogradely perfused on a Langendorff apparatus with a Ca^2+-free Tyrode’s solution for 5 min before the perfusate was switched to an enzymatic solution for 10–20 min. The perfusate was finally changed to Kreb’s solution for 5 min. The perfusates were bubbled with 95% O2 + 5% CO2 and maintained at 37 °C. The ventricles w ere cut into small chunks and gently agitated in Kreb’s solution. The cells were filtered through nylon mesh (pore size 200 μm) and stored in Kreb’s solution at 4 °C.
Action potentials were elicited at 1 Hz by 2 ms current pulses applied using the patch pipette.
Cell suspensions were transferred into a chamber on the stage of a Nikon Eclipse Ti inverted microscope (Tokyo, Japan). The whole-cell recordings were performed using isolated single ventricular myocytes. Patch electrodes were pulled from a horizontal microelectrode puller (P-1000, Sutter Instrument Co, USA) and fire polished to final tip resistance of 4.0–8.0 MΩ when filled with internal solutions. Signals were amplified with an Axopatch 200B amplifier (Axon Instruments, USA) and filtered at 1 kHz. The pCLAMP 9.0 software was used to generate current and voltage clamp protocols, acquire data, and analyse the current traces. The whole-cell series resistance was compensated to more than 80%. All of the experiments were performed at room temperature (22 ± 1 °C). The whole-cell IK1 was elicited by a ramp voltage protocol from −140 to + 40 mV in 1 s, or at a 0 mV holding potential to test potentials from −140 to + 40 mV in 10 mV increments. The IK1 was calculated as the difference between the peak inward current and the holding current level. The whole-cell Kv7.1/IKs were elicited from a −30 mV holding potential to test potentials from −80 to + 40 mV in 10 mV increments.

IKs = molecular target: T1, IKs (Rattus norvegicus, UniProt Q9Z0N7); assay: Whole-cell recording of IKs on rat ventricular myocytes; conditions: puerarin 100 μM
T1 construct: endogenous in cells; host or cells: isolated adult rat ventricular myocytes
Protocol: as §1, with “3 μM nifedipine and 5 μM E-4031 were used to block the calcium current and IKr, respectively. For whole-cell recording on HEK-293 cells, the pipette solution contained (mM): 140 KCl, 2 MgCl2, 10 HEPES, 0.1 EGTA, 4 K2-ATP, pH 7.3 (adjusted with KOH); the bath solution contained (mM): 120 NaCl, 5 KCl, 1.5 CaCl2, 1 MgCl2, 10 HEPES, 10 glucose, pH 7.4 (adjusted with NaOH). For single-channel recording, the pipette solution (extracellular) contained (mM): 145 KCl, 10 HEPES, 10 glucose, pH 7.4 (adjusted with KOH); the bath solution (intracellular) contained (mM): 145 KCl, 1.2 MgCl2, 10 HEPES, 0.1 EGTA, pH 7.38 (adjusted with KOH).” left out
Cell suspensions were transferred into a chamber on the stage of a Nikon Eclipse Ti inverted microscope (Tokyo, Japan). […] The IK1 was calculated as the difference between the peak inward current and the holding current level. […]

O=c1c(-c2ccc(O)cc2)coc2c([C@@H]3O[C@H](CO)[C@@H](O)[C@H](O)[C@H]3O)c(O)ccc12 [Puerarin, 8-c-glucoside of daidzein]
effect upon the increase of cAMP induced by isoproterenol, forskolin (intracellular cAMP; rat cardiac myocytes): no effect | effect on intracellular cAMP concentration (intracellular cAMP; rat cardiac myocytes (text: also HEK293 transfected Kv7.1/IKs)): no effect | APD50 (rat ventricular myocytes; puerarin 0.01 mM, control 71.8 ± 11.8): 86.9 ± 10.7 ms | APA (rat ventricular myocytes; puerarin 0.01 mM): 109.8 ± 8.5 mV | APD90 (rat ventricular myocytes; puerarin 0.01 mM, control 164.6 ± 21.4): 188.3 ± 11.5 ms | Vmax (rat ventricular myocytes; puerarin 0.01 mM): 217.5 ± 10.7 V/s | RMP (rat ventricular myocytes; puerarin 0.01 mM): −80.5 ± 2.2 mV | effect on RMP, APA and Vmax (rat ventricular myocytes; puerarin 100 μM): not affected | effect on isoproterenol-reduced APD (APD50, APD90) (rat ventricular myocytes; puerarin 100 μM with isoproterenol 10 nM): significantly offseted the reduced effect of isoproterenol | APD50 (rat ventricular myocytes; puerarin 100 μM, from (71.8 ± 11.8) mS): 100.5 ± 14.1 mS | APD90 (rat ventricular myocytes; puerarin 100 μM, from (164.6 ± 21.4) mS): 221.6 ± 25.7 mS | APD50 (rat ventricular myocytes; puerarin 0.1 mM, control 71.8 ± 11.8): 100.5 ± 14.1 ms | APA (rat ventricular myocytes; puerarin 0.1 mM): 114.2 ± 4.9 mV | APD90 (rat ventricular myocytes; puerarin 0.1 mM, control 164.6 ± 21.4): 221.6 ± 25.7 ms | Vmax (rat ventricular myocytes; puerarin 0.1 mM): 242.1 ± 13.8 V/s | RMP (rat ventricular myocytes; puerarin 0.1 mM): −80.3 ± 1.6 mV | APD50 (rat ventricular myocytes; puerarin 1 mM, control 71.8 ± 11.8): 123.6 ± 25.4 ms | APA (rat ventricular myocytes; puerarin 1 mM): 115.9 ± 6.2 mV | APD90 (rat ventricular myocytes; puerarin 1 mM, control 164.6 ± 21.4): 278.7 ± 28.2 ms | Vmax (rat ventricular myocytes; puerarin 1 mM): 236.1 ± 15.9 V/s | RMP (rat ventricular myocytes; puerarin 1 mM): −79.7 ± 1.5 mV | APD50 (rat ventricular myocytes; puerarin 10 mM, control 71.8 ± 11.8): 131.4 ± 19.6 ms | APA (rat ventricular myocytes; puerarin 10 mM): 112.6 ± 4.7 mV | APD90 (rat ventricular myocytes; puerarin 10 mM, control 164.6 ± 21.4): 330.1 ± 22.3 ms | Vmax (rat ventricular myocytes; puerarin 10 mM): 238.4 ± 11.5 V/s | RMP (rat ventricular myocytes; puerarin 10 mM): −75.3 ± 2.4 mV | APD50 (rat ventricular myocytes; puerarin 100 mM, control 71.8 ± 11.8): 146.9 ± 21.8 ms | APA (rat ventricular myocytes; puerarin 100 mM): 113.8 ± 5.1 mV | APD90 (rat ventricular myocytes; puerarin 100 mM, control 164.6 ± 21.4): 415.6 ± 28.4 ms | Vmax (rat ventricular myocytes; puerarin 100 mM): 240.6 ± 12.1 V/s | RMP (rat ventricular myocytes; puerarin 100 mM): −74.7 ± 2.6 mV | APD50 (rat ventricular myocytes; puerarin 200 mM, control 71.8 ± 11.8): 162.3 ± 23.5 ms | APD90 (rat ventricular myocytes; puerarin 200 mM, control 164.6 ± 21.4): 439.5 ± 29.6 ms | RMP (rat ventricular myocytes; puerarin 200 mM): −73.5 ± 2.1 mV | APA (rat ventricular myocytes; puerarin): 111.7 ± 5.6 mV | Vmax (rat ventricular myocytes; puerarin): 237.8 ± 10.4 V/s | effect on forskolin-activated IKs current in rat cardiac myocytes (IKs): antagonized such activation effect
